Values of other authors in publication PMC6309200 (Journal of Controlled Release, 2018).
Where a SMILES comes first, the peptide text is derived from it.

Test system: PA-specific CD8+ T cells
Conditions: shown previously; ref [15]

Structure (SMILES): CC(=O)N[C@@H](CCC(N)=O)C(=O)N[C@@H](CCC(N)=O)C(=O)N[C@@H](CCCCN)C(=O)N[C@@H](Cc1ccccc1)C(=O)N[C@@H](CCC(N)=O)C(=O)N[C@@H](Cc1ccccc1)C(=O)N[C@@H](CCC(N)=O)C(=O)N[C@@H](Cc1ccccc1)C(=O)N[C@@H](CCC(=O)O)C(=O)N[C@@H](CCC(N)=O)C(=O)N[C@@H](CCC(N)=O)C(N)=O [Q11] (Ac-QQKFQFQFEQQ-NH2)
- Immunogenicity without attached competent epitopes: non-immunogenic
